Experimental data as given in patent US11319303B2 (WIGEN BIOMEDICINE TECHNOLOGY (SHANGHAI) CO., LTD., priority 2017, dated 2022).

Target: LC3B (Homo sapiens, UniProt Q9GZQ8)
Assay: Fluorescence Polarization (FP) Assay: displacement of FITC-labeled peptide from GST-LC3B
Type: binding
Conditions: Fluorescence Polarization assay; GST-LC3B 180 nM, FITC-labeled peptide 18 nM, 25° C.; read-out: IC50
Description: The compounds of the present invention for regulating the autophagy-related protein LC3B were tested by Fluorescence Polarization (FP) Assay.
Fluorescence Polarization (FP) Assay Test

Row | Compound | IC50 [µM]
1 | O=C1CC(c2ccc(-n3ccnc3)nc2)CC(=O)C1=CNCCN1CCN(CCO)CC1 (stereo not drawn) [Compound 82, 5-(6-(1H-imidazol-1-yl)pyridin-3-yl)-2-(((2-(4-(2-hydroxyethyl)piperazin-1-yl)ethyl)amino)methylene) cyclohexane-1,3-dione] | 15 to 100
2 | O=C1CC(c2ccc(Nc3nccs3)nc2)CC(=O)C1=CNCCN1CCN(CCO)CC1 (stereo not drawn) [Compound 83, 2-(((2-(4-(2-hydroxyethyl)piperazin-1-yl)ethyl)amino)methylene)-5-(6-(thiazol-2-ylamino)pyridin-3-yl)cyclohexane-1,3-dione] | 15 to 100
3 | COCCN1c2ccccc2Sc2cc(C3CC(=O)C(=CNCCN4CCN(CCO)CC4)C(=O)C3)ccc21 (stereo not drawn) [Compound 84, 2-(((2-(4-(2-hydroxyethyl)piperazin-1-yl)ethyl)amino)methylene)-5-(10-(2-methoxyethyl)-10H-phenothiazin-3-yl)cyclohexane-1,3-dione] | 15 to 100
4 | Nc1nc2c(C3CC(=O)C(=CNCCN4CCN(CCO)CC4)C(=O)C3)cccc2s1 (stereo not drawn) [Compound 85, 5-(2-aminobenzo[d]thiazol-4-yl)-2-(((2-(4-(2-hydroxyethyl)piperazin-1-yl)ethyl)amino)methylene)cyclohexane-1,3-dione] | 15 to 100
5 | O=C1CC2(CCC2)CC(=O)C1=CNCCN1CCN(CCO)CC1 [Compound 86, 7-(((2-(4-(2-hydroxyethyl)piperazin-1-yl)ethyl)amino)methylene)-spiro[3.5]nonane-6,8-dione] | 15 to 100
6 | O=C1CC(c2ccc(-n3ccnc3)cc2)CC(=O)C1=CNCCN1CCN(CCO)CC1 (stereo not drawn) [Compound 87, 5-(4-(1H-imidazol-1-yl)phenyl)-2-(((2-(4-(2-hydroxyethyl)piperazin-1-yl)ethyl)amino)methylene) cyclohexane-1,3-dione] | 15 to 100
7 | O=C1CC(c2cnc3ccccc3n2)CC(=O)C1=CNCCN1CCN(CCO)CC1 (stereo not drawn) [Compound 88, 2-(((2-(4-(2-hydroxyethyl)piperazin-1-yl)ethyl)amino)methylene)-5-(quinoxalin-2-yl)cyclohexane-1,3-dione] | 3 to 15
8 | O=C1CC(c2ccc(OCCN3CCOCC3)nc2)CC(=O)C1=CNCCN1CCN(CCO)CC1 (stereo not drawn) [Compound 89, 2-(((2-(4-(2-hydroxyethyl)piperazin-1-yl)ethyl)amino)methylene)-5-(6-(2-morpholinoethoxy)pyridin-3-yl)cyclohexane-1,3-dione] | 100 to 1000
9 | O=C1CC(c2cncnc2)CC(=O)C1=CNCCN1CCN(CCO)CC1 (stereo not drawn) [Compound 90, 2-(((2-(4-(2-hydroxyethyl)piperazin-1-yl)ethyl)amino)methylene)-5-(pyrimidin-5-yl)cyclohexane-1,3-dione] | 100 to 1000
10 | O=C1CC(c2cnc(N3CCOCC3)nc2)CC(=O)C1=CNCCN1CCN(CCO)CC1 (stereo not drawn) [Compound 91, 2-(((2-(4-(2-hydroxyethyl)piperazin-1-yl)ethyl)amino)methylene)-5-(2-morpholino-pyrimidin-5-yl)cyclohexane-1,3-dione] | 15 to 100
11 | O=C1CC(c2ccc(S(=O)(=O)N3CCOCC3)cc2)CC(=O)C1=CNCCN1CCN(CCO)CC1 (stereo not drawn) [Compound 92] | 15 to 100
12 | O=C1CC(c2cccc3[nH]ncc23)CC(=O)C1=CNCCN1CCN(CCO)CC1 (stereo not drawn) [Compound 93, 2-(((2-(4-(2-hydroxyethyl)piperazin-1-yl)ethyl)amino)methylene)-5-(1H-indazol-4-yl)cyclohexane-1,3-dione] | 3 to 15
13 | O=C1CC(C(F)(F)F)CC(=O)C1=CNCCN1CCN(CCO)CC1 (stereo not drawn) [Compound 94, 2-(((2-(4-(2-hydroxyethyl)piperazin-1-yl)ethyl)amino)methylene)-5-(trifluoromethyl) cyclohexane-1,3-dione] | 15 to 100
14 | O=C1CC(c2ccccc2)OC(=O)C1=CNCCN1CCN(CCO)CC1 (stereo not drawn) [Compound 95, 3-(((2-(4-(2-hydroxyethyl)piperazin-1-yl)ethyl)amino)methylene)-6-phenyldihydro-2H-pyran-2,4(3H)-dione] | 15 to 100
15 | O=C1CC(c2ccccc2)NC(=O)C1=CNCCN1CCN(CCO)CC1 (stereo not drawn) [Compound 96, 3-(((2-(4-(2-hydroxyethyl)piperazin-1-yl)ethyl)amino)methylene)-6-phenylpiperidine-2,4-dione] | 100 to 1000
16 | O=C1CN(c2ccccc2)CC(=O)C1=CNCCN1CCN(CCO)CC1 [Compound 97, 4-(((2-(4-(2-hydroxyethyl)piperazin-1-yl)ethyl)amino)methylene)-1-phenylpiperidine-3,5-dione] | 15 to 100
17 | O=C1CCN(c2ccccc2)C(=O)/C1=C\NCCN1CCN(CCO)CC1 [Compound 99, 3-(((2-(4-(2-hydroxyethyl)piperazin-1-yl)ethyl)amino)methylene)-1-phenylpiperidine-2,4-dione] | 100 to 1000
18 | O=C1CCC(c2ccc(F)cc2)C(=O)C1=CNCCN1CCN(CCO)CC1 (stereo not drawn) [Compound 100, 4-(4-fluorophenyl)-2-(((2-(4-(2-hydroxyethyl)piperazin-1-yl)ethyl)amino)methylene)cyclohexane-1,3-dione] | 15 to 100
19 | O=C1C(=CNCCN2CCN(CCO)CC2)C(=O)C(c2ccccc2)CC1Cc1ccccc1 (stereo not drawn) [Compound 101, 4-benzyl-2-(((2-(4-(2-hydroxyethyl)piperazin-1-yl)ethyl)amino)methylene)-6-phenylcyclohexane-1,3-dione] | 15 to 100
20 | COc1ccc(CN2CC(=O)C(=CNCCN3CCN(CCO)CC3)C(=O)C2)cc1 [Compound 102, 4-(((2-(4-(2-hydroxyethyl)piperazin-1-yl)ethyl)amino)methylene)-1-(4-methoxybenzyl)piperidine-3,5-dione] | 15 to 100
21 | O=C1CN(Cc2ccccc2)CC(=O)C1=CNCCN1CCN(CCO)CC1 [Compound 103, 1-benzyl-4-(((2-(4-(2-hydroxyethyl)piperazin-1-yl)ethyl)amino)methylene)-piperidine-3,5-dione] | 15 to 100
22 | O=C1CN(C(=O)c2ccccc2)CC(=O)C1=CNCCN1CCN(CCO)CC1 [Compound 104, 1-benzoyl-4-(((2-(4-(2-hydroxyethyl)piperazin-1-yl)ethyl)amino)methylene)-piperidine-3,5-dione] | 15 to 100
23 | O=C1CC(C(=O)N2CCOCC2)CC(=O)C1=CNCCN1CCN(CCO)CC1 (stereo not drawn) [Compound 106, 2-(((2-(4-(2-hydroxyethyl)piperazin-1-yl)ethyl)amino)methylene)-5-(morpholine-4-carbonyl)cyclohexane-1,3-dione] | 100 to 1000
24 | O=C1Nc2ccccc2C(=O)/C1=C/NCCN1CCN(CCO)CC1 [Compound 107, 3-(((2-(4-(2-hydroxyethyl)piperazin-1-yl)ethyl)amino)methylene)quinoline-2,4(1H,3H)-dione] | 15 to 100
25 | CC(NCCN1CCN(CCO)CC1)=C1C(=O)CC(c2ccccc2)CC1=O (stereo not drawn) [Compound 108, 2-(1-((2-(4-(2-hydroxyethyl)piperazin-1-yl)ethyl)amino)ethylidene)-5-phenylcyclohexane-1,3-dione] | 100 to 1000
26 | O=C1CC(c2ccccc2)CC(=O)C1=C(NCCN1CCN(CCO)CC1)c1ccccc1 (stereo not drawn) [Compound 110, 2-(((2-(4-(2-hydroxyethyl)piperazin-1-yl)ethyl)amino)(phenyl)methylene)-5-phenylcyclohexane-1,3-dione] | 100 to 1000
27 | CC(=O)OCC(=O)C1=C(O)CC(c2ccccc2)CC1=O (stereo not drawn) [Compound 111, 2-(5-hydroxy-3-oxo-1,2,3,6-tetrahydro-[1,1′ -biphenyl]-4-yl)-2-oxoethyl acetate] | 100 to 1000
